Measured values published in ChEMBL document CHEMBL4229379, “Synthesis and structure-activity relationship of novel bisindole amidines active against MDR Gram-positive and Gram-negative bacteria” (Eur J Med Chem, 2018).
≈ marks a conversion by molar mass, not a printed value.

Assays:
[1] = Cytotoxicity against HEK293T cells assessed as reduction in cell viability after 48 hrs by MTS assay; type: cell-based, HEK-293T; details: human
Pseudomonas aeruginosa [2] = experiment: Antibacterial activity against Pseudomonas aeruginosa ATCC 27853 after 18 hrs by CLSI broth microdilution method; type: functional; details: ATCC 27853, 18 h
Escherichia coli [3] = experiment: Antibacterial activity against extended-spectrum beta-lactamase harboring Escherichia coli 12-15 after 18 hrs by CLSI broth microdilution method; type: functional; details: 12-15, 18 h
Klebsiella aerogenes = experiment: Antibacterial activity against Enterobacter aerogenes ATCC 13048 after 18 hrs by CLSI broth microdilution method; type: functional; details: ATCC 13048, 18 h
Escherichia coli [4] = experiment: Antibacterial activity against extended-spectrum beta-lactamase deficient Escherichia coli ATCC 25922 after 18 hrs by CLSI broth microdilution method; type: functional; details: ATCC 25922, 18 h
Klebsiella pneumoniae [5] = experiment: Antibacterial activity against extended-spectrum beta-lactamase deficient Klebsiella pneumoniae 7 after 18 hrs by CLSI broth microdilution method; type: functional; details: Klebsiella pneumoniae, 7, 18 h
Staphylococcus aureus [6] = experiment: Antibacterial activity against methicillin-sensitive Staphylococcus aureus ATCC 29213 after 18 hrs by CLSI broth microdilution method; type: functional; details: ATCC 29213, 18 h
[7] = tested on: Staphylococcus epidermidis; experiment: Antibacterial activity against methicillin-resistant Staphylococcus epidermidis 12-8 after 18 hrs by CLSI broth microdilution method; type: functional; details: 12-8, 18 h
Enterococcus faecium [8] = experiment: Antibacterial activity against vancomycin-resistant Enterococcus faecium 12-1 after 18 hrs by CLSI broth microdilution method; type: functional; details: 12-1, 18 h
Klebsiella pneumoniae [9] = experiment: Antibacterial activity against extended-spectrum beta-lactamase harboring Klebsiella pneumoniae ATCC 700603 after 18 hrs by CLSI broth microdilution method; type: functional; details: Klebsiella pneumoniae, 700603, 18 h
Providencia rettgeri = experiment: Antibacterial activity against Providencia rettgeri ATCC 31052 after 18 hrs by CLSI broth microdilution method; type: functional; details: ATCC 31052, 18 h
Proteus vulgaris = experiment: Antibacterial activity against Proteus vulgaris ATCC 29905 after 18 hrs by CLSI broth microdilution method; type: functional; details: ATCC 29905, 18 h
Staphylococcus aureus [10] = experiment: Antibacterial activity against methicillin-sensitive Staphylococcus aureus 12-28 after 18 hrs by CLSI broth microdilution method; type: functional; details: 12-28, 18 h
Pseudomonas aeruginosa [11] = experiment: Antibacterial activity against Pseudomonas aeruginosa 12-16 after 18 hrs by CLSI broth microdilution method; type: functional; details: 12-16, 18 h
[12] = tested on: Acinetobacter calcoaceticus; experiment: Antibacterial activity against Acinetobacter calcoaceticus ATCC 19606 after 18 hrs by CLSI broth microdilution method; type: functional; details: ATCC 19606, 18 h
Pseudomonas aeruginosa [13] = experiment: Antibacterial activity against Pseudomonas aeruginosa PAO1 after 18 hrs by CLSI broth microdilution method; type: functional; details: PAO1, 18 h
[14] = tested on: Staphylococcus epidermidis; experiment: Antibacterial activity against methicillin-sensitive Staphylococcus epidermidis 12-6 after 18 hrs by CLSI broth microdilution method; type: functional; details: 12-6, 18 h
Staphylococcus aureus [15] = experiment: Antibacterial activity against methicillin-sensitive Staphylococcus aureus 15 after 18 hrs by CLSI broth microdilution method; type: functional; details: Staphylococcus aureus, 15, 18 h
[16] = tested on: Staphylococcus epidermidis; experiment: Antibacterial activity against methicillin-sensitive Staphylococcus epidermidis ATCC 12228 after 18 hrs by CLSI broth microdilution method; type: functional; details: ATCC 12228, 18 h
Enterococcus faecalis [17] = experiment: Antibacterial activity against vancomycin-resistant Enterococcus faecalis ATCC 51299 after 18 hrs by CLSI broth microdilution method; type: functional; details: ATCC 51299, 18 h
Klebsiella pneumoniae [18] = experiment: Antibacterial activity against extended-spectrum beta-lactamase deficient Klebsiella pneumoniae 12-4 after 18 hrs by CLSI broth microdilution method; type: functional; details: 12-4, 18 h
Proteus mirabilis = experiment: Antibacterial activity against Proteus mirabilis 12-6 after 18 hrs by CLSI broth microdilution method; type: functional; details: 12-6, 18 h
Enterococcus faecalis [19] = experiment: Antibacterial activity against vancomycin-sensitive Enterococcus faecalis ATCC 29212 after 18 hrs by CLSI broth microdilution method; type: functional; details: ATCC 29212, 18 h
Enterococcus faecium [20] = experiment: Antibacterial activity against vancomycin-sensitive Enterococcus faecium 12-3 after 18 hrs by CLSI broth microdilution method; type: functional; details: 12-3, 18 h
Klebsiella pneumoniae [21] = experiment: Antibacterial activity against new delhi metallo-beta-lactamase-1 harboring Klebsiella pneumoniae ATCC BAA-2146 after 18 hrs by CLSI broth microdilution method; type: functional; details: ATCC BAA-2146, 18 h
Escherichia coli [22] = experiment: Antibacterial activity against extended-spectrum beta-lactamase deficient Escherichia coli 1515 after 18 hrs by CLSI broth microdilution method; type: functional; details: Escherichia coli, 1515, 18 h
Serratia marcescens = experiment: Antibacterial activity against Serratia marcescens ATCC 21074 after 18 hrs by CLSI broth microdilution method; type: functional; details: ATCC 21074, 18 h
Enterococcus faecium [23] = experiment: Antibacterial activity against vancomycin-resistant Enterococcus faecium ATCC 700221 after 18 hrs by CLSI broth microdilution method; type: functional; details: ATCC 700221, 18 h
Staphylococcus aureus [24] = experiment: Antibacterial activity against methicillin-resistant Staphylococcus aureus 12-33 after 18 hrs by CLSI broth microdilution method; type: functional; details: 12-33, 18 h
Klebsiella pneumoniae [25] = experiment: Antibacterial activity against extended-spectrum beta-lactamase harboring Klebsiella pneumoniae 12-8 after 18 hrs by CLSI broth microdilution method; type: functional; details: 12-8, 18 h
Staphylococcus aureus [26] = experiment: Antibacterial activity against methicillin-resistant Staphylococcus aureus ATCC 33591 after 18 hrs by CLSI broth microdilution method; type: functional; details: ATCC 33591, 18 h
[27] = tested on: Stenotrophomonas maltophilia; experiment: Antibacterial activity against Stenotrophomonas maltophilia ATCC 13636 after 18 hrs by CLSI broth microdilution method; type: functional; details: ATCC 13636, 18 h
Enterobacter cloacae = experiment: Antibacterial activity against Enterobacter cloacae ATCC 43560 after 18 hrs by CLSI broth microdilution method; type: functional; details: ATCC 43560, 18 h
Escherichia coli [28] = experiment: Antibacterial activity against extended-spectrum beta-lactamase deficient Escherichia coli 12-14 after 18 hrs by CLSI broth microdilution method; type: functional; details: 12-14, 18 h
Citrobacter freundii = experiment: Antibacterial activity against Citrobacter freundii ATCC 43864 after 18 hrs by CLSI broth microdilution method; type: functional; details: ATCC 43864, 18 h
Enterococcus faecalis [29] = experiment: Antibacterial activity against vancomycin-resistant Enterococcus faecalis 09-9 after 18 hrs by CLSI broth microdilution method; type: functional; details: 09-9, 18 h
Enterococcus faecalis [30] = experiment: Antibacterial activity against vancomycin-sensitive Enterococcus faecalis 12-5 after 18 hrs by CLSI broth microdilution method; type: functional; details: 12-5, 18 h

Row | SMILES | CC50 at 48 h [1] | MIC (Pseudomonas aeruginosa [2]) | MIC (Escherichia coli [3]) | MIC (Klebsiella aerogenes) | MIC (Escherichia coli [4]) | MIC (Klebsiella pneumoniae [5]) | MIC (Staphylococcus aureus [6]) | MIC [7] | MIC (Enterococcus faecium [8]) | MIC (Klebsiella pneumoniae [9]) | MIC (Providencia rettgeri) | MIC (Proteus vulgaris) | MIC (Staphylococcus aureus [10]) | MIC (Pseudomonas aeruginosa [11]) | MIC [12] | MIC (Pseudomonas aeruginosa [13]) | MIC [14] | MIC (Staphylococcus aureus [15]) | MIC [16] | MIC (Enterococcus faecalis [17]) | also measured
1 | CCN(C)C(=N)c1ccc2cc(-c3ccc(-c4cc5ccc(C(=N)N(C)CC)cc5[nH]4)cc3)[nH]c2c1 | 17 µg/mL (≈ 35.8 µM) | 8 µg/mL (≈ 16.8 µM) | 2 µg/mL (≈ 4.2 µM) | 2 µg/mL (≈ 4.2 µM) | 1 µg/mL (≈ 2.1 µM) | 4 µg/mL (≈ 8.39 µM) | 0.5 µg/mL (≈ 1.05 µM) | 0.5 µg/mL (≈ 1.05 µM) | 0.5 µg/mL (≈ 1.05 µM) | 8 µg/mL (≈ 16.8 µM) | 4 µg/mL (≈ 8.39 µM) | 4 µg/mL (≈ 8.39 µM) | 0.5 µg/mL (≈ 1.05 µM) | 128 µg/mL (≈ 269 µM) | 4 µg/mL (≈ 8.39 µM) | 128 µg/mL (≈ 269 µM) | 0.25 µg/mL (≈ 0.525 µM) | 0.5 µg/mL (≈ 1.05 µM) | 0.25 µg/mL (≈ 0.525 µM) | 2 µg/mL (≈ 4.2 µM) | MIC (Klebsiella pneumoniae [18]): 4 µg/mL (≈ 8.39 µM); MIC (Proteus mirabilis): 8 µg/mL (≈ 16.8 µM); MIC (Enterococcus faecalis [19]): 1 µg/mL (≈ 2.1 µM); MIC (Enterococcus faecium [20]): 1 µg/mL (≈ 2.1 µM); MIC (Klebsiella pneumoniae [21]): 4 µg/mL (≈ 8.39 µM); MIC (Escherichia coli [22]): 2 µg/mL (≈ 4.2 µM); MIC (Serratia marcescens): 16 µg/mL (≈ 33.6 µM); MIC (Enterococcus faecium [23]): 1 µg/mL (≈ 2.1 µM); MIC (Staphylococcus aureus [24]): 1 µg/mL (≈ 2.1 µM); MIC (Klebsiella pneumoniae [25]): 4 µg/mL (≈ 8.39 µM); MIC (Staphylococcus aureus [26]): 0.5 µg/mL (≈ 1.05 µM); MIC [27]: 8 µg/mL (≈ 16.8 µM); MIC (Enterobacter cloacae): 2 µg/mL (≈ 4.2 µM); MIC (Escherichia coli [28]): 2 µg/mL (≈ 4.2 µM); MIC (Citrobacter freundii): 2 µg/mL (≈ 4.2 µM); MIC (Enterococcus faecalis [29]): 2 µg/mL (≈ 4.2 µM); MIC (Enterococcus faecalis [30]): 2 µg/mL (≈ 4.2 µM)
2 | N=C(c1ccc2cc(-c3ccc(-c4cc5ccc(C(=N)N6CC=CC6)cc5[nH]4)cc3)[nH]c2c1)N1CC=CC1 | 12.4 µg/mL (≈ 24.9 µM) | > 128 µg/mL | 8 µg/mL (≈ 16.1 µM) | 8 µg/mL (≈ 16.1 µM) | 8 µg/mL (≈ 16.1 µM) | 8 µg/mL (≈ 16.1 µM) | 4 µg/mL (≈ 8.05 µM) | 4 µg/mL (≈ 8.05 µM) | 16 µg/mL (≈ 32.2 µM) | 32 µg/mL (≈ 64.4 µM) | 16 µg/mL (≈ 32.2 µM) | 32 µg/mL (≈ 64.4 µM) | 4 µg/mL (≈ 8.05 µM) | > 128 µg/mL | 32 µg/mL (≈ 64.4 µM) | > 128 µg/mL | 2 µg/mL (≈ 4.03 µM) | 4 µg/mL (≈ 8.05 µM) | 1 µg/mL (≈ 2.01 µM) | 8 µg/mL (≈ 16.1 µM) | MIC (Klebsiella pneumoniae [18]): 16 µg/mL (≈ 32.2 µM); MIC (Proteus mirabilis): 64 µg/mL (≈ 129 µM); MIC (Enterococcus faecalis [19]): 8 µg/mL (≈ 16.1 µM); MIC (Enterococcus faecium [20]): 16 µg/mL (≈ 32.2 µM); MIC (Klebsiella pneumoniae [21]): 8 µg/mL (≈ 16.1 µM); MIC (Escherichia coli [22]): 16 µg/mL (≈ 32.2 µM); MIC (Serratia marcescens): > 128 µg/mL; MIC (Enterococcus faecium [23]): 16 µg/mL (≈ 32.2 µM); MIC (Staphylococcus aureus [24]): 4 µg/mL (≈ 8.05 µM); MIC (Klebsiella pneumoniae [25]): 16 µg/mL (≈ 32.2 µM); MIC (Staphylococcus aureus [26]): 2 µg/mL (≈ 4.03 µM); MIC [27]: 32 µg/mL (≈ 64.4 µM); MIC (Enterobacter cloacae): 8 µg/mL (≈ 16.1 µM); MIC (Escherichia coli [28]): 16 µg/mL (≈ 32.2 µM); MIC (Citrobacter freundii): 8 µg/mL (≈ 16.1 µM); MIC (Enterococcus faecalis [29]): 8 µg/mL (≈ 16.1 µM); MIC (Enterococcus faecalis [30]): 8 µg/mL (≈ 16.1 µM)
3 | N=C(c1ccc2cc(-c3ccc(-c4cc5ccc(C(=N)N6CCOCC6)cc5[nH]4)cc3)[nH]c2c1)N1CCOCC1 | 16.4 µg/mL (≈ 30.9 µM) | > 128 µg/mL | 4 µg/mL (≈ 7.51 µM) | 8 µg/mL (≈ 15 µM) | 4 µg/mL (≈ 7.51 µM) | 8 µg/mL (≈ 15 µM) | 1 µg/mL (≈ 1.88 µM) | 0.5 µg/mL (≈ 0.939 µM) | 2 µg/mL (≈ 3.75 µM) | 16 µg/mL (≈ 30 µM) | 8 µg/mL (≈ 15 µM) | 8 µg/mL (≈ 15 µM) | 0.5 µg/mL (≈ 0.939 µM) | > 128 µg/mL | 32 µg/mL (≈ 60.1 µM) | > 128 µg/mL | 0.5 µg/mL (≈ 0.939 µM) | 0.5 µg/mL (≈ 0.939 µM) | 0.5 µg/mL (≈ 0.939 µM) | 4 µg/mL (≈ 7.51 µM) | MIC (Klebsiella pneumoniae [18]): 16 µg/mL (≈ 30 µM); MIC (Proteus mirabilis): 32 µg/mL (≈ 60.1 µM); MIC (Enterococcus faecalis [19]): 4 µg/mL (≈ 7.51 µM); MIC (Enterococcus faecium [20]): 4 µg/mL (≈ 7.51 µM); MIC (Klebsiella pneumoniae [21]): 8 µg/mL (≈ 15 µM); MIC (Escherichia coli [22]): 4 µg/mL (≈ 7.51 µM); MIC (Serratia marcescens): > 128 µg/mL; MIC (Enterococcus faecium [23]): 4 µg/mL (≈ 7.51 µM); MIC (Staphylococcus aureus [24]): 0.5 µg/mL (≈ 0.939 µM); MIC (Klebsiella pneumoniae [25]): 8 µg/mL (≈ 15 µM); MIC (Staphylococcus aureus [26]): 0.5 µg/mL (≈ 0.939 µM); MIC [27]: > 128 µg/mL; MIC (Enterobacter cloacae): 4 µg/mL (≈ 7.51 µM); MIC (Escherichia coli [28]): 4 µg/mL (≈ 7.51 µM); MIC (Citrobacter freundii): 4 µg/mL (≈ 7.51 µM); MIC (Enterococcus faecalis [29]): 4 µg/mL (≈ 7.51 µM); MIC (Enterococcus faecalis [30]): 8 µg/mL (≈ 15 µM)
